{"source": "patent US5446029A", "about": "“Anti-retroviral activity of 2',3'-dideoxy-3'-fluoronucleosides” (Medivir AB, priority 1986, dated 1995)", "key": {"[1]": {"target": "DNA polymerase of hepatitis B virus (HBV) (Hepatitis B virus genotype D subtype ayw, UniProt P03156)", "sequence (P03156 whole entry)": "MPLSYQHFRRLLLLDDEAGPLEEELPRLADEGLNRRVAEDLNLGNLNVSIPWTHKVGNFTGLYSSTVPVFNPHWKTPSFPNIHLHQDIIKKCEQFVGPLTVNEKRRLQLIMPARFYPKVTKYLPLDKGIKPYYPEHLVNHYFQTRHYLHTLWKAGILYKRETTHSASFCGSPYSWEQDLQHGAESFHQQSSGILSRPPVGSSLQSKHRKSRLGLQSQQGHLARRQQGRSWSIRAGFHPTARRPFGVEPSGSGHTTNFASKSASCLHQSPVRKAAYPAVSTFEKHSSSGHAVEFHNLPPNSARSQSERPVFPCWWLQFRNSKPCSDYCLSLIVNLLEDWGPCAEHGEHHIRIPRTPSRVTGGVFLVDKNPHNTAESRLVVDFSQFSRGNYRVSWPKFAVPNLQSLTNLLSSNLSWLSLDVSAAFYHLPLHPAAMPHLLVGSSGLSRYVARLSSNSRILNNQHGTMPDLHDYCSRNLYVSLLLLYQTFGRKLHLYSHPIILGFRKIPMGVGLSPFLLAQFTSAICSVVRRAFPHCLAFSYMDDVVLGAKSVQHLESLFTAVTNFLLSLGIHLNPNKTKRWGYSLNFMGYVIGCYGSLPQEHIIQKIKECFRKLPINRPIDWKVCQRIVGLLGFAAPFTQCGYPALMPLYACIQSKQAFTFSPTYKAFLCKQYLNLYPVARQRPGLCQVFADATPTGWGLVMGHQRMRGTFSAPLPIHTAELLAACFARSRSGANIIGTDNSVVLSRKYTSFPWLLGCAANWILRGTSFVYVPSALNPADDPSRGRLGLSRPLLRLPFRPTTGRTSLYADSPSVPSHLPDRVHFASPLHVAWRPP", "assay": "Inhibition of hepatitis B virus (HBV) DNA polymerase, cell free assay (Test I)", "assay_type": "biochemical", "description": "The HBV associated DNA polymerase activity can be measured in vitro (Kaplan et al., J. Virol., 12,995-1005, 1973). A slight modification of this method has been used to test the substance for inhibition of this DNA polymerase activity. (Nordenfelt E., (Oberg, B., Helgstrand E. and Miller E. Acta path., Microbiol. Scand. Sect B, 88:169-175, 1980). With this assay the 3'-deoxy-3'-fluorothymidine-5'-triphosphate has been tested, instead of the prodrug 3'-deoxy- 3'-fluorothymidine, to evaluate its potential against hepatitis B virus DNA polymerase.\n3'-deoxy-3'-fluorothymidine-5'-triphosphate was added to the final concentrations of 0.01 μM, 0.05 μM, 0.1 μM, 0.5 μM and 1.0 μM in the reaction mixture. The inhibition is calculated after 3 hours incubation at 37° C. and based on cpm compared to control with added water."}, "DNA synthesis": {"test_system": "DNA synthesis", "conditions": "Journal f. prakt. Chemie, Vol. 315, 895-900 (1973); cited from earlier work"}, "[2]": {"target": "T1, reverse transcriptase of HIV (HTLV-III/LAV) (Human immunodeficiency virus type 1 group M subtype B, UniProt P04585)", "T1 construct": "reverse transcriptase of HIV (HTLV-III/LAV) in cell free assay", "assay": "Inhibition of HIV (HTLV-III/LAV) reverse transcriptase, cell free assay (Test II)", "assay_type": "biochemical", "experimental": "The assay was performed as described by Vrang et Oberg, Antimicrob. Agents Chemother. 29,867-872 (1986)."}, "[3]": {"test_system": "HIV (HTLV-III/LAV) in H9 cells", "quoted_text": "MATERIAL AND METHODS; HIV INFECTION OF H9 CELLS\nThe cells were then pelleted and dispersed in 2.5 ml phosphate buffered saline (PBS) including 2 μg/ml Polybrene. After incubation for 30 min the cells were pelleted and infected with HIV. After an adsorption period of 1 hour the cells were pelleted and washed once with 2.5 ml PBS. […] Samples for reverse transcriptase activity tests were taken as indicated.\n1.3 ml samples from the supernatant of each culture were centrifuged at 18 000 rpm in a 55-34 rotor for 1.5 hours and the virus pellet resuspended in 100 μl buffer containing 50 mM Tris-HC1, pH 7.5; 35 mM KC1; 4 mM DTT; 1 mM EDTA; 1.3 % Triton X-100.50 μl samples were taken to the reverse transcriptase activity tests and analyzed in a 100 μl reaction mixture containing 75 mM Tris-HC1, pH 8.0; 60 mM KC1; 6.2 mM MgC12 ; 6 mM DTT; 0.5 mM EDTA; 0.65 % Triton X-100; 100 μg/ml BSA; 25 μCi/ml ^3 H-dTTP (spec activity 80 Ci/mmol); 2.5 μg/ml (dT)12-18 ; and 2.0 μg/ml (rA)n. Incubation was for 1 hour at 37° C. and the TCA-insoluble product precipitated onto Whatman GF/A filter papers, washed and dried, and counted in a liquid scintillation counter."}}, "note": "Where two headings read alike, the source gives them in different places.", "data": [{"smiles": "Cc1cn([C@H]2C[C@H](F)[C@@H](CO)O2)c(=O)[nH]c1=O", "values": [{"measurement": "apparent ID50-value", "setting": "[1]; from Table I, tested as 5'-triphosphate, 3 hours at 37° C.", "value": 160, "unit": "nM"}, {"measurement": "cytostatic and virustatic activity", "setting": "DNA synthesis", "value": "cytostatic and virustatic activity as selective inhibitor of DNA synthesis"}, {"measurement": "ID50-value with regard to the activity of HIV reverse transcriptase", "setting": "[2]; by extrapolation from Table II, tested as 5'-triphosphate", "value": 200, "unit": "nM"}, {"measurement": "Reverse transcriptase activity", "setting": "[3]; 0.01 μM, day 4 post-infection, untreated 0.9", "value": 0.5, "unit": "cpm × 10^-3"}, {"measurement": "Reverse transcriptase activity", "setting": "[3]; 0.01 μM, day 8 post-infection, untreated 19", "value": 1.3, "unit": "cpm × 10^-3"}, {"measurement": "Reverse transcriptase activity", "setting": "[3]; 0.01 μM, day 11 post-infection, untreated 17", "value": 1.9, "unit": "cpm × 10^-3"}, {"measurement": "Reverse transcriptase activity", "setting": "[3]; 0.01 μM, day 15 post-infection, untreated 11", "value": 2.7, "unit": "cpm × 10^-3"}, {"measurement": "Reverse transcriptase activity", "setting": "[3]; 0.01 μM, day 18 post-infection, untreated 27", "value": 28, "unit": "cpm × 10^-3"}, {"measurement": "Reverse transcriptase activity", "setting": "[3]; 0.01 μM, day 22 post-infection, untreated 46", "value": 52, "unit": "cpm × 10^-3"}, {"measurement": "Reverse transcriptase activity", "setting": "[3]; 0.01 μM, day 29 post-infection, untreated 16", "value": 21, "unit": "cpm × 10^-3"}, {"measurement": "effect on reverse transcriptase activity of HIV (in words)", "setting": "[3]; 0.01 μM, up to 11 days", "value": "enzyme activity was not detected"}, {"measurement": "Reverse transcriptase activity", "setting": "[3]; 0.05 μM, day 4 post-infection, untreated 0.9", "value": 0.3, "unit": "cpm × 10^-3"}, {"measurement": "Reverse transcriptase activity", "setting": "[3]; 0.05 μM, day 8 post-infection, untreated 19", "value": 0.3, "unit": "cpm × 10^-3"}, {"measurement": "Reverse transcriptase activity", "setting": "[3]; 0.05 μM, day 11 post-infection, untreated 17", "value": 0.4, "unit": "cpm × 10^-3"}, {"measurement": "Reverse transcriptase activity", "setting": "[3]; 0.05 μM, day 15 post-infection, untreated 11", "value": 0.6, "unit": "cpm × 10^-3"}, {"measurement": "Reverse transcriptase activity", "setting": "[3]; 0.05 μM, day 18 post-infection, untreated 27", "value": 0.5, "unit": "cpm × 10^-3"}, {"measurement": "Reverse transcriptase activity", "setting": "[3]; 0.05 μM, day 22 post-infection, untreated 46", "value": 1.6, "unit": "cpm × 10^-3"}, {"measurement": "Reverse transcriptase activity", "setting": "[3]; 0.05 μM, day 29 post-infection, untreated 16", "value": 3.1, "unit": "cpm × 10^-3"}, {"measurement": "effect on reverse transcriptase activity of HIV (in words)", "setting": "[3]; 0.05 μM, up to 22 days", "value": "no significant enzyme activity was detected"}, {"measurement": "effect on reverse transcriptase activity of HIV (in words)", "setting": "[3]; 0.1 μM and higher concentrations, during at least 29 days", "value": "completely prevents the enzyme activity"}, {"measurement": "Reverse transcriptase activity", "setting": "[3]; 0.1 μM, day 4 post-infection, untreated 0.9", "value": 0.2, "unit": "cpm × 10^-3"}, {"measurement": "Reverse transcriptase activity", "setting": "[3]; 0.1 μM, day 8 post-infection, untreated 19", "value": 0.2, "unit": "cpm × 10^-3"}, {"measurement": "Reverse transcriptase activity", "setting": "[3]; 0.1 μM, day 11 post-infection, untreated 17", "value": 0.5, "unit": "cpm × 10^-3"}, {"measurement": "Reverse transcriptase activity", "setting": "[3]; 0.1 μM, day 15 post-infection, untreated 11", "value": 0.4, "unit": "cpm × 10^-3"}, {"measurement": "Reverse transcriptase activity", "setting": "[3]; 0.1 μM, day 18 post-infection, untreated 27", "value": 0.4, "unit": "cpm × 10^-3"}, {"measurement": "Reverse transcriptase activity", "setting": "[3]; 0.1 μM, day 22 post-infection, untreated 46", "value": 0.2, "unit": "cpm × 10^-3"}, {"measurement": "Reverse transcriptase activity", "setting": "[3]; 0.1 μM, day 29 post-infection, untreated 16", "value": 0.2, "unit": "cpm × 10^-3"}, {"measurement": "Reverse transcriptase activity", "setting": "[3]; 0.5 μM, day 4 post-infection, untreated 0.9", "value": 0.3, "unit": "cpm × 10^-3"}, {"measurement": "Reverse transcriptase activity", "setting": "[3]; 0.5 μM, day 8 post-infection, untreated 19", "value": 0.3, "unit": "cpm × 10^-3"}, {"measurement": "Reverse transcriptase activity", "setting": "[3]; 0.5 μM, day 11 post-infection, untreated 17", "value": 0.5, "unit": "cpm × 10^-3"}, {"measurement": "Reverse transcriptase activity", "setting": "[3]; 0.5 μM, day 15 post-infection, untreated 11", "value": 0.3, "unit": "cpm × 10^-3"}, {"measurement": "Reverse transcriptase activity", "setting": "[3]; 0.5 μM, day 18 post-infection, untreated 27", "value": 0.6, "unit": "cpm × 10^-3"}, {"measurement": "Reverse transcriptase activity", "setting": "[3]; 0.5 μM, day 22 post-infection, untreated 46", "value": 0.1, "unit": "cpm × 10^-3"}, {"measurement": "Reverse transcriptase activity", "setting": "[3]; 0.5 μM, day 29 post-infection, untreated 16", "value": 0.2, "unit": "cpm × 10^-3"}, {"measurement": "Reverse transcriptase activity", "setting": "[3]; 1.0 μM, day 4 post-infection, untreated 0.9", "value": 0.3, "unit": "cpm × 10^-3"}, {"measurement": "Reverse transcriptase activity", "setting": "[3]; 1.0 μM, day 8 post-infection, untreated 19", "value": 0.2, "unit": "cpm × 10^-3"}, {"measurement": "Reverse transcriptase activity", "setting": "[3]; 1.0 μM, day 11 post-infection, untreated 17", "value": 0.5, "unit": "cpm × 10^-3"}, {"measurement": "Reverse transcriptase activity", "setting": "[3]; 1.0 μM, day 15 post-infection, untreated 11", "value": 0.4, "unit": "cpm × 10^-3"}, {"measurement": "Reverse transcriptase activity", "setting": "[3]; 1.0 μM, day 18 post-infection, untreated 27", "value": 0.5, "unit": "cpm × 10^-3"}, {"measurement": "Reverse transcriptase activity", "setting": "[3]; 1.0 μM, day 22 post-infection, untreated 46", "value": 0.1, "unit": "cpm × 10^-3"}, {"measurement": "Reverse transcriptase activity", "setting": "[3]; 1.0 μM, day 29 post-infection, untreated 16", "value": 0.2, "unit": "cpm × 10^-3"}]}, {"smiles": "Cc1cn([C@H]2C[C@H](F)[C@@H](COP(=O)(O)OP(=O)(O)OP(=O)(O)O)O2)c(=O)[nH]c1=O", "note": "[3'-deoxy-3'-fluorothymidine-5'-triphosphate]", "values": [{"measurement": "inhibition at 1 µM", "setting": "[1]; read-out: % inhibition of HBV DNA polymerase activity", "value": 88, "unit": "%"}, {"measurement": "inhibition at 0.01 µM", "setting": "[2]; 0.01 μM", "value": 12, "unit": "%"}, {"measurement": "inhibition at 0.05 µM", "setting": "[2]; 0.05 μM", "value": 27, "unit": "%"}, {"measurement": "inhibition at 0.1 µM", "setting": "[2]; 0.1 μM", "value": 38, "unit": "%"}]}]}
